In ChEMBL document CHEMBL1201862, “PubChem BioAssay data set” (2004):
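Growth conditions: 96-well plates. Treatment: test compound, 48 hours, 5 concentrations. Analysis: linear interpolation between bracketing concentrations; unreached endpoints set to highest concentration. GI50 = concentration required for 50% inhibition of growth.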 Calls of active or inactive are those of the source. No stated cut-off is given here; in the data, active = GI50 up to about 1.1 µM and inactive = higher.

Columns and labels:
Experiment in all cases: NCI tumour cell line growth inhibition, 48 h
PC-3 = test system: PC-3
MDA-MB-231 = test system: MDA-MB-231
HOP-92 = test system: HOP-92
MDA-MB-435 = test system: MDA-MB-435
UACC-257 = test system: UACC-257
SK-MEL-5 = test system: SK-MEL-5
EKVX = test system: EKVX
RXF 393 = test system: RXF 393
ACHN = test system: ACHN
CCRF-CEM = test system: CCRF-CEM
MCF7 = test system: MCF7
A498 = test system: A498
SR = test system: SR
CAKI-1 = test system: CAKI-1
HCC 2998 = test system: HCC 2998
MDA-N = test system: MDA-N
UACC-62 = test system: UACC-62
Hs-578T = test system: Hs-578T
T47D = test system: T47D
SK-OV-3 = test system: SK-OV-3

Measured: GI50

CN1C(=O)C(O)CC1c1ccccc1F (centres undefined)
inactive: PC-3 > 100 µM | MDA-MB-231 > 100 µM | HOP-92 > 100 µM | MDA-MB-435 > 100 µM | UACC-257 > 100 µM | SK-MEL-5 > 100 µM | EKVX > 100 µM | RXF 393 > 100 µM | ACHN > 100 µM | CCRF-CEM > 100 µM | MCF7 > 100 µM | A498 > 100 µM | SR > 100 µM | CAKI-1 > 100 µM | HCC 2998 > 100 µM | MDA-N > 100 µM | UACC-62 > 100 µM

N#Cc1c(N)[nH]c(=S)c(C#N)c1-c1cccc(Cl)c1
inactive: PC-3 21.8 µM | MDA-MB-231 29.4 µM | Hs-578T 26.7 µM | HOP-92 24.4 µM | MDA-MB-435 21.4 µM | UACC-257 36.3 µM | SK-MEL-5 20.2 µM | EKVX 25.6 µM | RXF 393 22.4 µM | ACHN 61.1 µM | MCF7 32.3 µM | A498 30.1 µM | SR 18.6 µM | CAKI-1 65.8 µM | HCC 2998 15.6 µM | MDA-N 18.2 µM | UACC-62 29.6 µM

S=c1[nH]nc(Cn2c3ccc(Br)cc3c3nc4ccccc4nc32)n1C1CCCCC1
inactive: PC-3 20.4 µM | MDA-MB-231 36.5 µM | MDA-MB-435 20.3 µM | UACC-257 31.6 µM | SK-MEL-5 6.87 µM | EKVX 35 µM | RXF 393 18.5 µM | T47D 19.4 µM | ACHN 29.4 µM | CCRF-CEM 25.6 µM | MCF7 16.7 µM | A498 20.5 µM | SK-OV-3 26.5 µM | SR 8.13 µM | CAKI-1 34.2 µM | HCC 2998 16.1 µM | MDA-N 37.5 µM | UACC-62 16.1 µM

COc1ccc(N2C(=O)c3cc(C)cnc3S2(=O)=O)cc1
inactive: PC-3 > 100 µM | MDA-MB-231 > 100 µM | Hs-578T > 100 µM | HOP-92 > 100 µM | MDA-MB-435 > 100 µM | SK-MEL-5 > 100 µM | EKVX > 100 µM | RXF 393 > 100 µM | ACHN > 100 µM | CCRF-CEM > 100 µM | SK-OV-3 > 100 µM | SR > 100 µM | HCC 2998 > 100 µM | MDA-N > 100 µM | UACC-62 > 100 µM

CC1SC2(CCCCC2)N(NC(=O)CSc2nc3ccc(Cl)cc3c(=O)n2-c2ccccc2)C1=O (centres undefined)
inactive: PC-3 23.2 µM | MDA-MB-231 18.3 µM | HOP-92 22.3 µM | MDA-MB-435 23.4 µM | UACC-257 22.8 µM | SK-MEL-5 14.3 µM | EKVX 42.5 µM | RXF 393 19.3 µM | T47D 27.3 µM | ACHN 29.6 µM | CCRF-CEM 34.4 µM | MCF7 15.3 µM | A498 32.6 µM | SK-OV-3 33.3 µM | CAKI-1 37.1 µM | HCC 2998 20 µM | MDA-N 18.3 µM | UACC-62 18 µM

NC(=S)N/N=c1\cc(C(=O)Nc2ccc([N+](=O)[O-])cc2[N+](=O)[O-])oc2ccccc12
inactive: PC-3 > 100 µM | MDA-MB-231 > 100 µM | Hs-578T > 100 µM | HOP-92 43.5 µM | MDA-MB-435 > 100 µM | UACC-257 > 100 µM | SK-MEL-5 > 100 µM | EKVX 49.8 µM | RXF 393 > 100 µM | ACHN > 100 µM | CCRF-CEM > 100 µM | MCF7 > 100 µM | SK-OV-3 99.5 µM | CAKI-1 75.2 µM | HCC 2998 > 100 µM | MDA-N > 100 µM | UACC-62 > 100 µM

Nc1nc(Cl)c(/C=N\O)c(NCC2(CO)CC(=O)C2)n1
inactive: PC-3 80.2 µM | MDA-MB-231 80.7 µM | Hs-578T 18.7 µM | HOP-92 40.8 µM | MDA-MB-435 95.1 µM | UACC-257 58.3 µM | SK-MEL-5 76.7 µM | EKVX > 100 µM | RXF 393 39.4 µM | ACHN 62.1 µM | CCRF-CEM 41.7 µM | MCF7 52.5 µM | A498 34.4 µM | SR 3.85 µM | CAKI-1 75.3 µM | HCC 2998 > 100 µM | MDA-N 96.4 µM

O=S(=O)(O)c1cc(O)c2c(O)c(/N=N/c3ccc(/C=C/c4ccc(/N=N/c5c(S(=O)(=O)O)cc6cc(S(=O)(=O)O)cc(O)c6c5O)cc4S(=O)(=O)O)c(S(=O)(=O)O)c3)c(S(=O)(=O)O)cc2c1
inactive: HOP-92 95.7 µM | UACC-257 > 100 µM | SK-MEL-5 > 100 µM | EKVX > 100 µM | RXF 393 > 100 µM | ACHN > 100 µM | CCRF-CEM > 100 µM | A498 > 100 µM | SK-OV-3 > 100 µM | SR > 100 µM | CAKI-1 > 100 µM | HCC 2998 > 100 µM | UACC-62 > 100 µM

CCOC1NC(/N=C/c2ccc(OC)cc2)=C(C#N)C1C#N (centres undefined)
inactive: PC-3 46 µM | MDA-MB-231 64.6 µM | Hs-578T 47.5 µM | MDA-MB-435 40.6 µM | UACC-257 65.5 µM | SK-MEL-5 38.6 µM | EKVX 92 µM | RXF 393 34.5 µM | ACHN > 100 µM | CCRF-CEM 26.7 µM | MCF7 > 100 µM | A498 > 100 µM | SK-OV-3 80.4 µM | SR 30 µM | CAKI-1 > 100 µM | HCC 2998 > 100 µM | MDA-N 49.2 µM | UACC-62 32.9 µM

COc1ccc(-c2nc(-c3cnccn3)n(COCCO)n2)cc1
inactive: PC-3 > 100 µM | MDA-MB-231 > 100 µM | HOP-92 > 100 µM | MDA-MB-435 > 100 µM | UACC-257 > 100 µM | SK-MEL-5 > 100 µM | RXF 393 > 100 µM | T47D > 100 µM | CCRF-CEM > 100 µM | MCF7 > 100 µM | SK-OV-3 > 100 µM | SR > 100 µM | HCC 2998 > 100 µM | MDA-N > 100 µM | UACC-62 > 100 µM

O=c1oc2ccc3ccccc3c2cc1-c1nnc(-c2ccc([N+](=O)[O-])cc2)[nH]1
inactive: PC-3 > 100 µM | Hs-578T 11.5 µM | MDA-MB-435 > 100 µM | UACC-257 > 100 µM | SK-MEL-5 > 100 µM | EKVX 20.7 µM | ACHN 42.2 µM | CCRF-CEM > 100 µM | MCF7 > 100 µM | A498 53.6 µM | SK-OV-3 23.6 µM | SR > 100 µM | CAKI-1 > 100 µM | HCC 2998 > 100 µM | MDA-N > 100 µM | UACC-62 > 100 µM

CC12c3ccccc3C(OC=O)(c3ccccc31)C1(C)c3ccccc3C2(OC=O)c2ccccc21
inactive: HOP-92 > 100 µM | UACC-257 > 100 µM | SK-MEL-5 > 100 µM | EKVX > 100 µM | RXF 393 > 100 µM | ACHN > 100 µM | CCRF-CEM 36.6 µM | A498 > 100 µM | SK-OV-3 > 100 µM | SR 18.4 µM | CAKI-1 > 100 µM | HCC 2998 > 100 µM | UACC-62 > 100 µM
